molecular target: T1, EGFR (Homo sapiens, UniProt P00533); assay: Biochemical EGFR Assay; set-up: concentration or dose not given beside the values; settings: protocol P.167
T1 construct: endogenous in cells; host or cells: A431 cells (lysate, captured with SUMO1 anti-EGFR antibody)
Method in brief: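 EGFR from A431 lysate was captured on anti-EGFR-coated wells and preincubated 30 min with compound (diluted 1:10 in TBS) at room temperature. After ATP/MnCl2 phosphorylation for 5 min, the reaction was stopped with EDTA. Phosphotyrosine was detected by ELISA (anti-phosphotyrosine, peroxidase conjugate, ABTS) at 410 nm.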

T1 sequence (P00533 25-1210): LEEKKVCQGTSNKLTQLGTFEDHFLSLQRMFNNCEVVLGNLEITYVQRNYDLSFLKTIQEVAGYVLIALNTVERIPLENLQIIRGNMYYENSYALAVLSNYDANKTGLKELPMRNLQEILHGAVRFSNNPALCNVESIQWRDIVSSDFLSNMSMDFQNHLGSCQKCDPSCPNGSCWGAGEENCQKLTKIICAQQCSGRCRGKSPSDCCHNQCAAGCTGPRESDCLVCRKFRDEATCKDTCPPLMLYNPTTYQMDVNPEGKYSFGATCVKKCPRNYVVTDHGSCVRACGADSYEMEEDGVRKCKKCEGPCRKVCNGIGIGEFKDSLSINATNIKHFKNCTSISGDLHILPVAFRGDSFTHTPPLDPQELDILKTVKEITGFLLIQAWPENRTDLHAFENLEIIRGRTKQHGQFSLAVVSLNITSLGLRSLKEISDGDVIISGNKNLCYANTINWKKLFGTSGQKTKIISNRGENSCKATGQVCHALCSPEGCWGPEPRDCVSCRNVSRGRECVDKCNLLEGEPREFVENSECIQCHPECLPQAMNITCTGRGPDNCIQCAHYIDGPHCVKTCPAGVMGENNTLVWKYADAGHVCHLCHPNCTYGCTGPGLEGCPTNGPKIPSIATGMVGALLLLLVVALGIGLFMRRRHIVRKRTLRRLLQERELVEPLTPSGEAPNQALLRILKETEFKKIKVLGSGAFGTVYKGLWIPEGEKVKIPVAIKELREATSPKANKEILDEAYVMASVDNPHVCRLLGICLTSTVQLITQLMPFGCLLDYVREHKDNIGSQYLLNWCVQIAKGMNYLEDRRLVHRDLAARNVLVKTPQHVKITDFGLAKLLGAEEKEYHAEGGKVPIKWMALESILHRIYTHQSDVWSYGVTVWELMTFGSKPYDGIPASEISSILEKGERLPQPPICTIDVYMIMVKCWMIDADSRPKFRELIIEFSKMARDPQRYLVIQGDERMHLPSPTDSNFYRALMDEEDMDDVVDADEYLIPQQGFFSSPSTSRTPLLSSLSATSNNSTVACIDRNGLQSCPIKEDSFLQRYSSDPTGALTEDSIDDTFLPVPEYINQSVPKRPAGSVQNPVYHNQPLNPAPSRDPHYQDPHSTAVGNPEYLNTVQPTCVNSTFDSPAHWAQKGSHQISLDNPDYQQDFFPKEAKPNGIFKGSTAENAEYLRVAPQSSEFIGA

Compound | Biochem EGFR % Inhibition (P.167)
Cc1ccc(Oc2cccc(C=C3C(=O)Nc4c(Br)cc(Br)cc43)c2)cc1 [10738/A02] | 16.7%
O=C1Nc2c(Br)cc(Br)cc2C1=Cc1cccc(Oc2ccc(Cl)c(Cl)c2)c1 [10738/A03] | 40.5%
COc1ccc(C=C2C(=O)Nc3c(Br)cc(Br)cc32)cc1O [10738/A04] | −17.5%
O=C1Nc2c(Br)cc(Br)cc2C1=Cc1cc(O)ccc1[N+](=O)[O-] [10738/A05] | 33.6%
O=C1Nc2c(Br)cc(Br)cc2C1=Cc1cccc(O)c1O [10738/A06] | 54.9%
O=C1Nc2c(Br)cc(Br)cc2C1=Cc1cc(O)cc(O)c1 [10738/A07] | 4.3%
O=C1Nc2c(Br)cc(Br)cc2C1=Cc1ccc(Cl)c(Cl)c1 [10738/A08] | 6.0%
COc1ccccc1C=C1C(=O)Nc2c(Br)cc(Br)cc21 [10738/A09] | 17.0%
CC(C)c1ccc(C=C2C(=O)Nc3c(Br)cc(Br)cc32)cc1 [10738/A10] | −0.9%
CCCOc1ccc(C=C2C(=O)Nc3c(Br)cc(Br)cc32)cc1 [10738/A11] | 4.5%
Cc1ccc(Oc2cccc(C=C3C(=O)Nc4ccc(I)cc43)c2)cc1 [10738/B02] | −24.4%
O=C1Nc2ccc(I)cc2C1=Cc1cccc(Oc2ccc(Cl)c(Cl)c2)c1 [10738/B03] | 19.2%
COc1ccc(C=C2C(=O)Nc3ccc(I)cc32)cc1O [10738/B04] | 51.2%
O=C1Nc2ccc(I)cc2C1=Cc1cc(O)ccc1[N+](=O)[O-] [10738/B05] | 57.6%
O=C1Nc2ccc(I)cc2C1=Cc1cccc(O)c1O [10738/B06] | 22.9%
O=C1Nc2ccc(I)cc2C1=Cc1cc(O)cc(O)c1 [10738/B07] | 28.7%
O=C1Nc2ccc(I)cc2C1=Cc1ccc(Cl)c(Cl)c1 [10738/B08] | 33.9%
COc1ccccc1C=C1C(=O)Nc2ccc(I)cc21 [10738/B09] | 20.9%
CC(C)c1ccc(C=C2C(=O)Nc3ccc(I)cc32)cc1 [10738/B10] | 37.3%
CCCOc1ccc(C=C2C(=O)Nc3ccc(I)cc32)cc1 [10738/B11] | 18.0%
Cc1ccc(Oc2cccc(C=C3C(=O)Nc4ccc(Br)c(C)c43)c2)cc1 [10738/C02] | −30.5%
Cc1c(Br)ccc2c1C(=Cc1cccc(Oc3ccc(Cl)c(Cl)c3)c1)C(=O)N2 [10738/C03] | 8.2%
COc1ccc(C=C2C(=O)Nc3ccc(Br)c(C)c32)cc1O [10738/C04] | 43.7%
Cc1c(Br)ccc2c1C(=Cc1cc(O)ccc1[N+](=O)[O-])C(=O)N2 [10738/C05] | 18.4%
Cc1c(Br)ccc2c1C(=Cc1cccc(O)c1O)C(=O)N2 [10738/C06] | 28.7%

Compound | Biochem EGFR % Inhibition (P.167)
Cc1c(Br)ccc2c1C(=Cc1cc(O)cc(O)c1)C(=O)N2 [10738/C07] | −19.0%
Cc1c(Br)ccc2c1C(=Cc1ccc(Cl)c(Cl)c1)C(=O)N2 [10738/C08] | −11.9%
COc1ccccc1C=C1C(=O)Nc2ccc(Br)c(C)c21 [10738/C09] | 31.9%
Cc1c(Br)ccc2c1C(=Cc1ccc(C(C)C)cc1)C(=O)N2 [10738/C10] | 5.2%
CCCOc1ccc(C=C2C(=O)Nc3ccc(Br)c(C)c32)cc1 [10738/C11] | −1.1%
CNS(=O)(=O)c1ccc2c(c1)C(=Cc1cccc(Oc3ccc(C)cc3)c1)C(=O)N2 [10738/D02] | 21.4%
CNS(=O)(=O)c1ccc2c(c1)C(=Cc1cccc(Oc3ccc(Cl)c(Cl)c3)c1)C(=O)N2 [10738/D03] | 47.6%
CNS(=O)(=O)c1ccc2c(c1)C(=Cc1ccc(OC)c(O)c1)C(=O)N2 [10738/D04] | 7.4%
CNS(=O)(=O)c1ccc2c(c1)C(=Cc1cc(O)ccc1[N+](=O)[O-])C(=O)N2 [10738/D05] | 4.3%
CNS(=O)(=O)c1ccc2c(c1)C(=Cc1cccc(O)c1O)C(=O)N2 [10738/D06] | 32.4%
CNS(=O)(=O)c1ccc2c(c1)C(=Cc1cc(O)cc(O)c1)C(=O)N2 [10738/D07] | −8.7%
CNS(=O)(=O)c1ccc2c(c1)C(=Cc1ccc(Cl)c(Cl)c1)C(=O)N2 [10738/D08] | 0.6%
CNS(=O)(=O)c1ccc2c(c1)C(=Cc1ccccc1OC)C(=O)N2 [10738/D09] | 12.1%
CNS(=O)(=O)c1ccc2c(c1)C(=Cc1ccc(C(C)C)cc1)C(=O)N2 [10738/D10] | −12.4%
CCCOc1ccc(C=C2C(=O)Nc3ccc(S(=O)(=O)NC)cc32)cc1 [10738/D11] | −13.1%
Cc1ccc(Oc2cccc(C=C3C(=O)Nc4ccc(S(=O)(=O)Nc5ccc(C(F)(F)F)cc5)cc43)c2)cc1 [10738/E02] | 56.1%
O=C1Nc2ccc(S(=O)(=O)Nc3ccc(C(F)(F)F)cc3)cc2C1=Cc1cccc(Oc2ccc(Cl)c(Cl)c2)c1 [10738/E03] | 82.6%
COc1ccc(C=C2C(=O)Nc3ccc(S(=O)(=O)Nc4ccc(C(F)(F)F)cc4)cc32)cc1O [10738/E04] | 13.1%
O=C1Nc2ccc(S(=O)(=O)Nc3ccc(C(F)(F)F)cc3)cc2C1=Cc1cc(O)ccc1[N+](=O)[O-] [10738/E05] | 52.0%
O=C1Nc2ccc(S(=O)(=O)Nc3ccc(C(F)(F)F)cc3)cc2C1=Cc1cccc(O)c1O [10738/E06] | 15.8%
O=C1Nc2ccc(S(=O)(=O)Nc3ccc(C(F)(F)F)cc3)cc2C1=Cc1cc(O)cc(O)c1 [10738/E07] | 57.1%
O=C1Nc2ccc(S(=O)(=O)Nc3ccc(C(F)(F)F)cc3)cc2C1=Cc1ccc(Cl)c(Cl)c1 [10738/E08] | 43.2%
COc1ccccc1C=C1C(=O)Nc2ccc(S(=O)(=O)Nc3ccc(C(F)(F)F)cc3)cc21 [10738/E09] | 35.3%
CC(C)c1ccc(C=C2C(=O)Nc3ccc(S(=O)(=O)Nc4ccc(C(F)(F)F)cc4)cc32)cc1 [10738/E10] | 34.1%
CCCOc1ccc(C=C2C(=O)Nc3ccc(S(=O)(=O)Nc4ccc(C(F)(F)F)cc4)cc32)cc1 [10738/E11] | 15.8%

Compound | Biochem EGFR % Inhibition (P.167)
Cc1ccc(Oc2cccc(C=C3C(=O)Nc4ccc(S(=O)(=O)N5CCOCC5)cc43)c2)cc1 [10738/F02] | 13.1%
O=C1Nc2ccc(S(=O)(=O)N3CCOCC3)cc2C1=Cc1cccc(Oc2ccc(Cl)c(Cl)c2)c1 [10738/F03] | 45.6%
COc1ccc(C=C2C(=O)Nc3ccc(S(=O)(=O)N4CCOCC4)cc32)cc1O [10738/F04] | −6.5%
O=C1Nc2ccc(S(=O)(=O)N3CCOCC3)cc2C1=Cc1cc(O)ccc1[N+](=O)[O-] [10738/F05] | 51.5%
O=C1Nc2ccc(S(=O)(=O)N3CCOCC3)cc2C1=Cc1cccc(O)c1O [10738/F06] | −19.5%
O=C1Nc2ccc(S(=O)(=O)N3CCOCC3)cc2C1=Cc1cc(O)cc(O)c1 [10738/F07] | 9.1%
O=C1Nc2ccc(S(=O)(=O)N3CCOCC3)cc2C1=Cc1ccc(Cl)c(Cl)c1 [10738/F08] | 15.5%
COc1ccccc1C=C1C(=O)Nc2ccc(S(=O)(=O)N3CCOCC3)cc21 [10738/F09] | 0.1%
CC(C)c1ccc(C=C2C(=O)Nc3ccc(S(=O)(=O)N4CCOCC4)cc32)cc1 [10738/F10] | −4.8%
CCCOc1ccc(C=C2C(=O)Nc3ccc(S(=O)(=O)N4CCOCC4)cc32)cc1 [10738/F11] | −14.8%
Cc1ccc(Oc2cccc(C=C3C(=O)Nc4ccc(CCCl)cc43)c2)cc1 [10738/G02] | 19.9%
O=C1Nc2ccc(CCCl)cc2C1=Cc1cccc(Oc2ccc(Cl)c(Cl)c2)c1 [10738/G03] | 31.9%
COc1ccc(C=C2C(=O)Nc3ccc(CCCl)cc32)cc1O [10738/G04] | 12.1%
O=C1Nc2ccc(CCCl)cc2C1=Cc1cc(O)ccc1[N+](=O)[O-] [10738/G05] | 27.3%
O=C1Nc2ccc(CCCl)cc2C1=Cc1cccc(O)c1O [10738/G06] | −8.2%
O=C1Nc2ccc(CCCl)cc2C1=Cc1cc(O)cc(O)c1 [10738/G07] | −1.9%
O=C1Nc2ccc(CCCl)cc2C1=Cc1ccc(Cl)c(Cl)c1 [10738/G08] | 23.6%
COc1ccccc1C=C1C(=O)Nc2ccc(CCCl)cc21 [10738/G09] | 16.7%
CC(C)c1ccc(C=C2C(=O)Nc3ccc(CCCl)cc32)cc1 [10738/G10] | 26.5%
CCCOc1ccc(C=C2C(=O)Nc3ccc(CCCl)cc32)cc1 [10738/G11] | 19.4%
Cc1ccc(Oc2cccc(C=C3C(=O)Nc4c(Br)cc(Br)c(C)c43)c2)cc1 [10738/H02] | −52.0%
Cc1c(Br)cc(Br)c2c1C(=Cc1cccc(Oc3ccc(Cl)c(Cl)c3)c1)C(=O)N2 [10738/H03] | 16.7%
COc1ccc(C=C2C(=O)Nc3c(Br)cc(Br)c(C)c32)cc1O [10738/H04] | −7.0%
Cc1c(Br)cc(Br)c2c1C(=Cc1cc(O)ccc1[N+](=O)[O-])C(=O)N2 [10738/H05] | 5.5%
Cc1c(Br)cc(Br)c2c1C(=Cc1cccc(O)c1O)C(=O)N2 [10738/H06] | −53.8%

Source: patent US20020026053A1, “Novel 3-(substituted) -2- indolinones compounds and use thereof as inhibitors of protein kinase activity” (priority 1997, published 2002)
